Measured values taken from PubChem BioAssay AID256 (DTP/NCI, 2004).
Where “and” joins values, the source holds several entries; their conditions need not be identical. Equal entries are not always repeated. Toxic doses and inconclusive results are not listed. Rule for the calls: active = survival T/C of 150% or more; inactive = T/C below 125% in these data.

Tested on: CD2F1 mice, L1210 leukemia ip, survival T/C
Test: NCI In Vivo Anticancer Drug Screen. Data for tumor model L1210 Leukemia (intraperitoneal) in CD2F1 (CDF1) mice
Settings: higher = longer survival
How it was run: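 Read-out first: treated-group measurement over vehicle-control measurement, expressed as a ratio. Animals bore a transplanted tumor line and were dosed with compound or vehicle.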

[1] = endpoint: mean survival time, dose: 100.0 mg/kg/injection, schedule: Q01DX001 (ip), vehicle: saline
[2] = endpoint: mean survival time, dose: 100.0 mg/kg/injection, schedule: Q04DX003 (ip), vehicle: saline
[3] = endpoint: mean survival time, dose: 200.0 mg/kg/injection, schedule: Q01DX001 (ip), vehicle: saline
[4] = endpoint: mean survival time, dose: 200.0 mg/kg/injection, schedule: Q04DX003 (ip), vehicle: saline
[5] = endpoint: mean survival time, dose: 400.0 mg/kg/injection, schedule: Q04DX003 (ip), vehicle: saline
[6] = endpoint: mean survival time, dose: 25.0 mg/kg/injection, schedule: Q04DX003 (ip), vehicle: saline with Tween-80
[7] = endpoint: mean survival time, dose: 50.0 mg/kg/injection, schedule: Q04DX003 (ip), vehicle: saline with Tween-80
[8] = endpoint: mean survival time, dose: 100.0 mg/kg/injection, schedule: Q04DX003 (ip), vehicle: saline with Tween-80
[9] = endpoint: mean survival time, dose: 200.0 mg/kg/injection, schedule: Q04DX003 (ip), vehicle: saline with Tween-80
[10] = endpoint: mean survival time, dose: 400.0 mg/kg/injection, schedule: Q04DX003 (ip), vehicle: saline with Tween-80
[11] = endpoint: mean survival time, dose: 50.0 mg/kg/injection, schedule: Q01DX009 (ip), vehicle: saline
[12] = endpoint: mean survival time, dose: 100.0 mg/kg/injection, schedule: Q01DX009 (ip), vehicle: saline
[13] = endpoint: mean survival time, dose: 200.0 mg/kg/injection, schedule: Q01DX009 (ip), vehicle: saline
[14] = endpoint: mean survival time, dose: 400.0 mg/kg/injection, schedule: Q01DX009 (ip), vehicle: saline
[15] = endpoint: mean survival time, dose: 100.0 mg/kg/injection, schedule: Q01DX001 (ip), vehicle: saline with Tween-80
[16] = endpoint: mean survival time, dose: 100.0 mg/kg/injection, schedule: Q01DX009 (ip), vehicle: saline with Tween-80
[17] = endpoint: mean survival time, dose: 200.0 mg/kg/injection, schedule: Q01DX001 (ip), vehicle: saline with Tween-80
[18] = endpoint: mean survival time, dose: 200.0 mg/kg/injection, schedule: Q01DX009 (ip), vehicle: saline with Tween-80
[19] = endpoint: mean survival time, dose: 400.0 mg/kg/injection, schedule: Q01DX001 (ip), vehicle: saline with Tween-80
[20] = endpoint: mean survival time, dose: 100.0 mg/kg/injection, schedule: Q04DX002 (ip), vehicle: saline with Tween-80
[21] = endpoint: mean survival time, dose: 200.0 mg/kg/injection, schedule: Q04DX002 (ip), vehicle: saline with Tween-80
[22] = endpoint: mean survival time, dose: 400.0 mg/kg/injection, schedule: Q04DX002 (ip), vehicle: saline with Tween-80

Measured: T/C

NCC(=O)Nc1ccc(Cl)cc1C(=O)c1ccc[nH]1
inactive: [1] 89 % of control | [2] 94 % of control | [3] 89 % of control | [4] 94 % of control | endpoint: mean survival time, dose: 400.0 mg/kg/injection, schedule: Q01DX001 (ip), vehicle: saline 92 % of control | [5] 96 % of control

C/C(=N/NC(N)=S)c1ccc2ccccc2c1
inactive: endpoint: mean survival time, dose: 6.25 mg/kg/injection, schedule: Q01DX009 (ip), vehicle: saline with Tween-80 103 % of control | endpoint: mean survival time, dose: 12.5 mg/kg/injection, schedule: Q01DX009 (ip), vehicle: saline with Tween-80 115 % of control | endpoint: mean survival time, dose: 25.0 mg/kg/injection, schedule: Q01DX009 (ip), vehicle: saline with Tween-80 122 % of control | endpoint: mean survival time, dose: 50.0 mg/kg/injection, schedule: Q01DX009 (ip), vehicle: saline with Tween-80 89 % of control

CCCCC(CC)CNC1=C(Cl)C(=O)c2ccccc2C1=O (stereo not drawn)
inactive: [6] 98 % of control | [7] 106 % of control | [8] 95 % of control

CCOC(=S)SCCSC
inactive: [1] 103 % of control | [3] 98 % of control

CN(C)c1ccc(N=Nc2ccccc2)cc1
inactive: endpoint: mean survival time, dose: 31.25 mg/kg/injection, schedule: Q01DX009 (ip), vehicle: saline with Tween-80 98 % of control | endpoint: mean survival time, dose: 62.5 mg/kg/injection, schedule: Q01DX009 (ip), vehicle: saline with Tween-80 96 % of control | endpoint: mean survival time, dose: 62.5 mg/kg/injection, schedule: Q04DX003 (ip), vehicle: saline with Tween-80 93 % of control | endpoint: mean survival time, dose: 125.0 mg/kg/injection, schedule: Q04DX003 (ip), vehicle: saline with Tween-80 95 % of control

CCN(CC)CCCNC(C)=O
inactive: [2] 98 % of control | [4] 96 % of control | [5] 101 % of control

CCC(C)(C)C(=O)O
inactive: [8] 100 % of control | [9] 103 % of control | [10] 105 % of control

CC(=O)NC(C)C(C)(C)O (stereo not drawn)
inactive: [2] 91 % of control | [4] 101 % of control | [5] 95 % of control

CCCCNC(C)(C)C(SSSC(c1ccc(Cl)cc1)C(C)(C)NCCCC)c1ccc(Cl)cc1 (stereo not drawn)
inactive: endpoint: mean survival time, dose: 12.0 mg/kg/injection, schedule: Q04DX003 (ip), vehicle: other 97 % of control | endpoint: mean survival time, dose: 25.0 mg/kg/injection, schedule: Q04DX003 (ip), vehicle: other 105 % of control | endpoint: mean survival time, dose: 50.0 mg/kg/injection, schedule: Q04DX003 (ip), vehicle: other 96 % of control

OCC1(CO)COC2(CCCCC2)N1
inactive: endpoint: mean survival time, dose: 12.5 mg/kg/injection, schedule: Q01DX009 (ip), vehicle: saline 101 % of control and 103 % of control | endpoint: mean survival time, dose: 25.0 mg/kg/injection, schedule: Q01DX009 (ip), vehicle: saline 103 % of control and 104 % of control | [11] 98 % of control | [12] 95 % of control and 103 % of control | [13] 97 % of control | [14] 95 % of control and 104 % of control

CC(C)(C)C1CCC(OC(=O)C(=O)O)CC1 (stereo not drawn)
inactive: [15] 100 % of control | [16] 104 % of control | [17] 97 % of control | [18] 87 % of control | [19] 95 % of control

Nc1nc(NC2OC(CO)C(O)C2O)c2nnsc2n1 (stereo not drawn)
inactive: endpoint: mean survival time, dose: 75.0 mg/kg/injection, schedule: Q01DX001 (ip), vehicle: saline 96 % of control | endpoint: mean survival time, dose: 150.0 mg/kg/injection, schedule: Q01DX001 (ip), vehicle: saline 100 % of control | endpoint: mean survival time, dose: 300.0 mg/kg/injection, schedule: Q01DX001 (ip), vehicle: saline 88 % of control

O=P(c1ccccc1)(c1ccccc1)P(=O)(c1ccccc1)c1ccccc1
inactive: [15] 90 % of control | [17] 90 % of control | [19] 96 % of control

Cc1cc(C)n(C(=S)[S-])n1.Cc1cc(C)n(C(=S)[S-])n1.[Pt+2]
inactive: [6] 90 % of control | [7] 90 % of control | [8] 105 % of control

COc1cc2cc3c4cc(OC)c(OC)cc4cc[n+]3c(C)c2cc1OC (tested in a mixture with another compound)
inactive: [11] 95 % of control | endpoint: mean survival time, dose: 50.0 mg/kg/injection, schedule: Q04DX003 (ip), vehicle: saline 91 % of control | [4] 122 % of control | [10] 88 % of control

CCCOP(=O)(CCl)OCCC
inactive: [12] 95 % of control | [13] 100 % of control | [14] 97 % of control

CC(=O)[CH-]C(=O)C(=O)[CH-]C(C)=O.[Cu+2]
inactive: endpoint: mean survival time, dose: 20.0 mg/kg/injection, schedule: Q01DX001 (ip), vehicle: saline with Tween-80 96 % of control | endpoint: mean survival time, dose: 40.0 mg/kg/injection, schedule: Q01DX001 (ip), vehicle: saline with Tween-80 96 % of control | endpoint: mean survival time, dose: 80.0 mg/kg/injection, schedule: Q01DX001 (ip), vehicle: saline with Tween-80 94 % of control

Oc1ccc(O)c2c1C1(Cl)C(Cl)=C(Cl)C2(Cl)C1(Cl)Cl
inactive: endpoint: mean survival time, dose: 100.0 mg/kg/injection, schedule: Q01DX009 (ip), vehicle: other 95 % of control | endpoint: mean survival time, dose: 200.0 mg/kg/injection, schedule: Q01DX009 (ip), vehicle: other 98 % of control | endpoint: mean survival time, dose: 400.0 mg/kg/injection, schedule: Q01DX009 (ip), vehicle: other 106 % of control

c1ccc(N=C2SCCS2)cc1
inactive: endpoint: mean survival time, dose: 3.13 mg/kg/injection, schedule: Q01DX001 (ip), vehicle: Klucel (hydroxypropylcellulose) (HPC) 93 % of control | endpoint: mean survival time, dose: 6.25 mg/kg/injection, schedule: Q01DX001 (ip), vehicle: Klucel (hydroxypropylcellulose) (HPC) 97 % of control | endpoint: mean survival time, dose: 12.5 mg/kg/injection, schedule: Q01DX001 (ip), vehicle: Klucel (hydroxypropylcellulose) (HPC) 108 % of control

ClCCOCCOc1ccc(C2CCCCC2)cc1
inactive: endpoint: mean survival time, dose: 100.0 mg/kg/injection, schedule: Q04DX003 (ip), vehicle: saline sonified 97 % of control | endpoint: mean survival time, dose: 200.0 mg/kg/injection, schedule: Q04DX003 (ip), vehicle: saline sonified 97 % of control | endpoint: mean survival time, dose: 400.0 mg/kg/injection, schedule: Q04DX003 (ip), vehicle: saline sonified 92 % of control

CCOC(=O)c1c(C)c2c(n1C)CC/C(=C\N1CCCCC1)C2=O
inactive: [20] 111 % of control | [21] 118 % of control | [22] 96 % of control

Cc1ccc(S(=O)(=O)OCCCCCOS(=O)(=O)c2ccc(C)cc2)cc1 (tested in a mixture with another compound)
inactive: [20] 102 % of control | [21] 94 % of control | [22] 94 % of control

Nc1c(Cl)c(Cl)c(Br)c(Cl)c1Cl
inactive: [8] 91 % of control | [9] 105 % of control | [10] 97 % of control

O=C1C=C[C@H](O)[C@@]2(CO)O[C@@H]12
inactive: endpoint: median survival time, dose: 0.31 mg/kg/injection, schedule: Q01DX009 (ip), vehicle: saline with Tween-80 102 % of control | endpoint: median survival time, dose: 0.62 mg/kg/injection, schedule: Q01DX009 (ip), vehicle: saline with Tween-80 101 % of control | endpoint: median survival time, dose: 1.25 mg/kg/injection, schedule: Q01DX009 (ip), vehicle: saline with Tween-80 118 % of control and 110 % of control | endpoint: median survival time, dose: 2.5 mg/kg/injection, schedule: Q01DX009 (ip), vehicle: saline with Tween-80 121 % of control and 123 % of control | endpoint: median survival time, dose: 5.0 mg/kg/injection, schedule: Q01DX009 (ip), vehicle: saline with Tween-80 114 % of control | endpoint: median survival time, dose: 10.0 mg/kg/injection, schedule: Q01DX009 (ip), vehicle: saline with Tween-80 118 % of control

Cc1ccc(Cl)c(S(=O)(=O)F)c1
inactive: [16] 88 % of control | [8] 106 % of control | [18] 103 % of control | [9] 93 % of control | endpoint: mean survival time, dose: 400.0 mg/kg/injection, schedule: Q01DX009 (ip), vehicle: saline with Tween-80 101 % of control | [10] 100 % of control

COC(=O)c1c[nH]c(=S)n1C(C)c1ccccc1 (stereo not drawn)
inactive: [16] 105 % of control | [8] 93 % of control | [18] 106 % of control | [9] 95 % of control | [10] 101 % of control

Cc1ccc(C2=CSC3=NCCN23)cc1Cl
inactive: endpoint: median survival time, dose: 6.25 mg/kg/injection, schedule: Q01DX005 (ip), vehicle: saline 116 % of control | endpoint: median survival time, dose: 12.5 mg/kg/injection, schedule: Q01DX005 (ip), vehicle: saline 108 % of control | endpoint: median survival time, dose: 25.0 mg/kg/injection, schedule: Q01DX005 (ip), vehicle: saline 109 % of control | endpoint: median survival time, dose: 50.0 mg/kg/injection, schedule: Q01DX005 (ip), vehicle: saline 100 % of control

CC(CO)(CO)N(CCO)CCO
inactive: [8] 94 % of control | [9] 100 % of control | [10] 92 % of control
